Reference: US20050197350A1, “Novel quinoline, tetrahydroquinazoline, and pyrimidine derivatives and methods of treatment related to the use thereof” (TAISHO PHARMACEUTICAL CO., LTD., priority 2003, published 2005)

Each compound was assayed on MCH receptors (assay: MCH receptor activity class (method not given)). Conditions: MCH receptor activity class 1-3 (percent of control at 10^-7 M or IC50).

SMILES | class
Cc1cccc(C)c1NC(=O)NC[C@H]1CC[C@@H](Nc2nc3c(c(N(C)C)n2)CCCC3)CC1 [compound 2452] | 1 (Class 1: The value of percent of control at 10^−7 M was less than 40% or the value of IC50 was less than 50 nM.)
CN(C)c1nc(N[C@H]2CC[C@@H](CNC(=O)Nc3ccc(F)cc3F)CC2)nc2c1CCCC2 [compound 2453] | 2 (Class 2: The value of percent of control at 10^−7 M was from 40% to 60% or the value of IC′50 was from 50 nM to 200 nM.)
CCc1cccc(C)c1NC(=O)NC[C@H]1CC[C@@H](Nc2nc3c(c(N(C)C)n2)CCCC3)CC1 [compound 2454] | 1 (Class 1: The value of percent of control at 10^−7 M was less than 40% or the value of IC50 was less than 50 nM.)
CN(C)c1nc(N[C@H]2CC[C@@H](CNC(=O)Nc3ccc(F)cc3)CC2)nc2c1CCCC2 [compound 2456] | 2 (Class 2: The value of percent of control at 10^−7 M was from 40% to 60% or the value of IC′50 was from 50 nM to 200 nM.)
CSc1ccc(NC(=O)NC[C@H]2CC[C@@H](Nc3nc4c(c(N(C)C)n3)CCCC4)CC2)cc1 [compound 2457] | 3 (Class 3 The value of percent of control at 10^−7 M was more than 60% or the value of IC50 was more than 200 nM.)
CN(C)c1nc(N[C@H]2CC[C@@H](CNC(=O)Nc3ccccc3C(F)(F)F)CC2)nc2c1CCCC2 [compound 2458] | 3 (Class 3 The value of percent of control at 10^−7 M was more than 60% or the value of IC50 was more than 200 nM.)
Cc1cc(C)c(NC(=O)NC[C@H]2CC[C@@H](Nc3nc4c(c(N(C)C)n3)CCCC4)CC2)c(C)c1 [compound 2459] | 1 (Class 1: The value of percent of control at 10^−7 M was less than 40% or the value of IC50 was less than 50 nM.)
Cc1ccccc1NC(=O)NC[C@H]1CC[C@@H](Nc2nc3c(c(N(C)C)n2)CCCC3)CC1 [compound 2460] | 3 (Class 3 The value of percent of control at 10^−7 M was more than 60% or the value of IC50 was more than 200 nM.)
CN(C)c1nc(N[C@H]2CC[C@@H](CNC(=O)Nc3c(Cl)cc(Cl)cc3Cl)CC2)nc2c1CCCC2 [compound 2461] | 1 (Class 1: The value of percent of control at 10^−7 M was less than 40% or the value of IC50 was less than 50 nM.)
CN(C)c1nc(N[C@H]2CC[C@@H](CNC(=O)Nc3c(Br)cc(Br)cc3Br)CC2)nc2c1CCCC2 [compound 2462] | 1 (Class 1: The value of percent of control at 10^−7 M was less than 40% or the value of IC50 was less than 50 nM.)
CN(C)c1nc(N[C@H]2CC[C@@H](CNC(=O)Nc3c(F)cc(Br)cc3Br)CC2)nc2c1CCCC2 [compound 2463] | 3 (Class 3 The value of percent of control at 10^−7 M was more than 60% or the value of IC50 was more than 200 nM.)
CCc1cccc(CC)c1NC(=O)NC[C@H]1CC[C@@H](Nc2nc3c(c(N(C)C)n2)CCCC3)CC1 [compound 2464] | 1 (Class 1: The value of percent of control at 10^−7 M was less than 40% or the value of IC50 was less than 50 nM.)
CN(C)c1nc(N[C@H]2CC[C@@H](CNC(=O)Nc3c(Cl)cccc3C(F)(F)F)CC2)nc2c1CCCC2 [compound 2465] | 1 (Class 1: The value of percent of control at 10^−7 M was less than 40% or the value of IC50 was less than 50 nM.)
Cc1cccc(Cl)c1NC(=O)NC[C@H]1CC[C@@H](Nc2nc3c(c(N(C)C)n2)CCCC3)CC1 [compound 2466, N-(2-chloro-6-methylphenyl)-N′-[(cis-4-{[4-(dimethylamino)-5,6,7,8-tetrahydroquinazolin-2-yl]amino}cyclohexyl)methyl]urea] | 1 (Class 1: The value of percent of control at 10^−7 M was less than 40% or the value of IC50 was less than 50 nM.)
CN(C)c1nc(N[C@H]2CC[C@@H](CNC(=O)NCc3ccccc3Cl)CC2)nc2c1CCCC2 [compound 2467] | 3 (Class 3 The value of percent of control at 10^−7 M was more than 60% or the value of IC50 was more than 200 nM.)
CCc1cccc(C(C)C)c1NC(=O)NC[C@H]1CC[C@@H](Nc2nc3c(c(N(C)C)n2)CCCC3)CC1 [compound 2468] | 1 (Class 1: The value of percent of control at 10^−7 M was less than 40% or the value of IC50 was less than 50 nM.)
CCc1ccccc1NC(=O)NC[C@H]1CC[C@@H](Nc2nc3c(c(N(C)C)n2)CCCC3)CC1 [compound 2469] | 3 (Class 3 The value of percent of control at 10^−7 M was more than 60% or the value of IC50 was more than 200 nM.)
CN(C)c1nc(N[C@H]2CC[C@@H](CNC(=O)Nc3ccccc3I)CC2)nc2c1CCCC2 [compound 2470] | 3 (Class 3 The value of percent of control at 10^−7 M was more than 60% or the value of IC50 was more than 200 nM.)
Cc1cccc(C(C)C)c1NC(=O)NC[C@H]1CC[C@@H](Nc2nc3c(c(N(C)C)n2)CCCC3)CC1 [compound 2471] | 2 (Class 2: The value of percent of control at 10^−7 M was from 40% to 60% or the value of IC′50 was from 50 nM to 200 nM.)
CC(C)c1ccccc1NC(=O)NC[C@H]1CC[C@@H](Nc2nc3c(c(N(C)C)n2)CCCC3)CC1 [compound 2472] | 3 (Class 3 The value of percent of control at 10^−7 M was more than 60% or the value of IC50 was more than 200 nM.)
Cc1c(NC(=O)NC[C@H]2CC[C@@H](Nc3nc4c(c(N(C)C)n3)CCCC4)CC2)cccc1[N+](=O)[O-] [compound 2473] | 3 (Class 3 The value of percent of control at 10^−7 M was more than 60% or the value of IC50 was more than 200 nM.)
CCCc1ccccc1NC(=O)NC[C@H]1CC[C@@H](Nc2nc3c(c(N(C)C)n2)CCCC3)CC1 [compound 2474] | 3 (Class 3 The value of percent of control at 10^−7 M was more than 60% or the value of IC50 was more than 200 nM.)
Cc1cccc(C(C)(C)C)c1NC(=O)NC[C@H]1CC[C@@H](Nc2nc3c(c(N(C)C)n2)CCCC3)CC1 [compound 2475, N-(2-tert-butyl-6-methylphenyl)-N′-[(cis-4-{[4-(dimethylamino)-5,6,7,8-tetrahydroquinazolin-2-yl]amino}cyclohexyl)methyl]urea] | 1 (Class 1: The value of percent of control at 10^−7 M was less than 40% or the value of IC50 was less than 50 nM.)
CN(C)c1nc(N[C@H]2CC[C@@H](CNC(=O)Nc3ccccc3C(C)(C)C)CC2)nc2c1CCCC2 [compound 2476] | 2 (Class 2: The value of percent of control at 10^−7 M was from 40% to 60% or the value of IC′50 was from 50 nM to 200 nM.)
Cc1c(Cl)cccc1NC(=O)NC[C@H]1CC[C@@H](Nc2nc3c(c(N(C)C)n2)CCCC3)CC1 [compound 2477] | 2 (Class 2: The value of percent of control at 10^−7 M was from 40% to 60% or the value of IC′50 was from 50 nM to 200 nM.)
CN(C)c1nc(N[C@H]2CC[C@@H](CNC(=O)Nc3c(F)cc(Br)cc3F)CC2)nc2c1CCCC2 [compound 2478] | 3 (Class 3 The value of percent of control at 10^−7 M was more than 60% or the value of IC50 was more than 200 nM.)
CN(C)c1nc(N[C@H]2CC[C@@H](CNC(=O)Nc3ccc(Cl)cc3C(F)(F)F)CC2)nc2c1CCCC2 [compound 2479] | 3 (Class 3 The value of percent of control at 10^−7 M was more than 60% or the value of IC50 was more than 200 nM.)
CN(C)c1nc(N[C@H]2CC[C@@H](CNC(=O)Nc3ccc(C#N)cc3)CC2)nc2c1CCCC2 [compound 2480] | 3 (Class 3 The value of percent of control at 10^−7 M was more than 60% or the value of IC50 was more than 200 nM.)
CN(C)c1nc(N[C@H]2CC[C@@H](CNC(=O)NC(c3ccccc3)c3ccccc3)CC2)nc2c1CCCC2 [compound 2481] | 3 (Class 3 The value of percent of control at 10^−7 M was more than 60% or the value of IC50 was more than 200 nM.)

Same assay, conditions: class by percent of control at 10^-7 M or IC50

SMILES | class
Cc1cc(Br)cc(C)c1NC(=O)NC[C@H]1CC[C@@H](Nc2nc3c(c(N(C)C)n2)CCCC3)CC1 [compound 2482, N-(4-bromo-2,6-dimethylphenyl)-N′-[(cis-4-{[4-(dimethylamino)-5,6,7,8-tetrahydroquinazolin-2-yl]amino}cyclohexyl)methyl]urea] | 1 (Class 1: The value of percent of control at 10^−7 M was less than 40% or the value of IC50 was less than 50 nM.)
Cc1noc(-c2ccccc2)c1NC(=O)NC[C@H]1CC[C@@H](Nc2nc3c(c(N(C)C)n2)CCCC3)CC1 [compound 2483] | 3 (Class 3 The value of percent of control at 10^−7 M was more than 60% or the value of IC50 was more than 200 nM.)
Cc1cc(NC(=O)NC[C@H]2CC[C@@H](Nc3nc4c(c(N(C)C)n3)CCCC4)CC2)c(C(F)(F)F)o1 [compound 2484] | 3 (Class 3 The value of percent of control at 10^−7 M was more than 60% or the value of IC50 was more than 200 nM.)
CN(C)c1nc(N[C@H]2CC[C@@H](CNC(=O)Nc3cc(Cl)cc(Cl)c3)CC2)nc2c1CCCC2 [compound 2485] | 3 (Class 3 The value of percent of control at 10^−7 M was more than 60% or the value of IC50 was more than 200 nM.)
CN(C)c1nc(N[C@H]2CC[C@@H](CNC(=O)Nc3cccc(Cl)c3Cl)CC2)nc2c1CCCC2 [compound 2486] | 3 (Class 3 The value of percent of control at 10^−7 M was more than 60% or the value of IC50 was more than 200 nM.)
Cc1ccc(NC(=O)NC[C@H]2CC[C@@H](Nc3nc4c(c(N(C)C)n3)CCCC4)CC2)cc1 [compound 2487] | 3 (Class 3 The value of percent of control at 10^−7 M was more than 60% or the value of IC50 was more than 200 nM.)
CC(C)c1cccc(C(C)C)c1NC(=O)NC[C@H]1CC[C@@H](Nc2nc3c(c(N(C)C)n2)CCCC3)CC1 [compound 2488, N-(2,6-diisopropylphenyl)-N′-[(cis-4-{[4-(dimethylamino)-5,6,7,8-tetrahydroquinazolin-2-yl]amino}cyclohexyl)methyl]urea] | 2 (Class 2: The value of percent of control at 10^−7 M was from 40% to 60% or the value of IC′50 was from 50 nM to 200 nM.)
Cc1ccc([N+](=O)[O-])c(NC(=O)NC[C@H]2CC[C@@H](Nc3nc4c(c(N(C)C)n3)CCCC4)CC2)c1C [compound 2489] | 2 (Class 2: The value of percent of control at 10^−7 M was from 40% to 60% or the value of IC′50 was from 50 nM to 200 nM.)
CN(C)c1nc(N[C@H]2CC[C@@H](CNC(=O)Nc3c(Br)cc(F)cc3Br)CC2)nc2c1CCCC2 [compound 2490, N-(2,6-dibromo-4-fluorophenyl)-N′-[(cis-4-{[4-(dimethylamino)-5,6,7,8-tetrahydroquinazolin-2-yl]amino}cyclohexyl)methyl]urea] | 1 (Class 1: The value of percent of control at 10^−7 M was less than 40% or the value of IC50 was less than 50 nM.)
